Measurements as given in patent US20150031572A1, “MEANS AND METHODS FOR ASSESSING NEURONAL TOXICITY” (priority 2012, published 2015).
Counter-ions that a name gives are not always drawn. Marks after values point to notes of the source that are not given here.

Experiment: Plasma metabolite profiling (GC-MS, LC-MS, SPE-LC-MS) of rats dosed once daily over 28 days; treatment ratios versus untreated control
Format: in vivo, rat
Method: A group of each 5 male and female rats was dosed once daily with the indicated compounds (see Table 10, below for compounds, applied doses and administration details) over 28 days.
Each dose group in the studies consisted of five rats per sex. Additional groups of each 5 male and female animals served as controls. Before starting the treatment period, animals, which were 62-64 days old when supplied, were acclimatized to the housing and environmental conditions for 7 days. All animals of the animal population were kept under the same constant temperature (20-24±3° C.) and the same constant humidity (30-70%). The animals of the animal population were fed ad libitum. The food to be used was essentially free of chemical or microbial contaminants. Drinking water was also offered ad libitum. Accordingly, the water was free of chemical and microbial contaminants as laid down in the European Drinking Water Directive 98/83/EG. The illumination period was 12 hours light followed by 12 hours darkness (12 hours light, from 6:00 to 18:00, and 12 hours darkness, from 18:00 to 6:00). […] The test substances (compounds) in the Tables 1 to 9 below were dosed and administered as described in the Table 10 above.
In the morning of day 7, 14, and 28, blood was taken from the retro-orbital venous plexus from fasted anaesthetized animals. From each animal, 1 ml of blood was collected with EDTA as anticoagulant. The samples were centrifuged for generation of plasma. All plasma samples were covered with a N2 atmosphere and then stored at −80° C. until analysis.
For mass spectrometry-based metabolite profiling analyses plasma samples were extracted and a polar and a non-polar (lipid) fraction was obtained. For GC-MS analysis, the non-polar fraction was treated with methanol under acidic conditions to yield the fatty acid methyl esters. Both fractions were further derivatised with O-methyl-hydroxyamine hydrochloride and pyridine to convert Oxogroups to O-methyloximes and subsequently with a silylating agent before analysis. In LC-MS analysis, both fractions were reconstituted in appropriate solvent mixtures. HPLC was performed by gradient elution on reversed phase separation columns. Mass spectrometric detection which allows target and high sensitivity MRM (Multiple Reaction Monitoring) profiling in parallel to a full screen analysis was applied as described in WO2003073464.
Steroids and their metabolites were measured by online SPE-LC-MS (Solid phase extraction-LC-MS).
Following comprehensive analytical validation steps, the data for each analyte were normalized against data from pool samples. These samples were run in parallel through the whole process to account for process variability. The significance of treatment group values specific for sex, treatment duration and metabolite was determined by comparing means of the treated groups to the means of the respective untreated control groups using WELCH-test and quantified with treatment ratios versus control and p-values.
The identification of the most important biomarkers per toxicity pattern was done by a ranking of the analytes in the tables below. Therefore the metabolic changes in reference treatments of a given pattern (shown in the table) were compared with changes of the same metabolite in other unrelated treatments. […] The maximum absolute value of the respective TVALUE was taken to indicate the most important metabolite for the pattern.

[1] = plasma, male rats, day 7, high dose, Table 8a
[2] = plasma, male rats, day 7, high dose, Table 8b
[3] = plasma, male rats, day 14, high dose, Table 8a
[4] = plasma, male rats, day 14, high dose, Table 8b
[5] = plasma, male rats, day 28, high dose, Table 8a
[6] = plasma, male rats, day 28, high dose, Table 8b
[7] = plasma, female rats, day 7, high dose, Table 9a
[8] = plasma, female rats, day 7, high dose, Table 9b
[9] = plasma, female rats, day 14, high dose, Table 9a
[10] = plasma, female rats, day 14, high dose, Table 9b
[11] = plasma, female rats, day 28, high dose, Table 9a
[12] = plasma, female rats, day 28, high dose, Table 9b
[13] = plasma, male rats, day 7, high dose, Table 9c
[14] = plasma, male rats, day 7, high dose, Table 9d
[15] = plasma, male rats, day 14, high dose, Table 9c
[16] = plasma, male rats, day 14, high dose, Table 9d
[17] = plasma, male rats, day 28, high dose, Table 9c
[18] = plasma, male rats, day 28, high dose, Table 9d
[19] = plasma, female rats, day 7, high dose, Table 7b
[20] = plasma, female rats, day 14, high dose, Table 7a
[21] = plasma, female rats, day 14, high dose, Table 7b
[22] = plasma, female rats, day 28, high dose, Table 7a
[23] = plasma, female rats, day 28, high dose, Table 7b

Q: For `CNCCC(Oc1ccc(C(F)(F)F)cc1)c1ccccc1` (stereo not drawn) [Fluoxetine hydrochloride], which “Ceramide (d18:1,C24:1), ratio versus control” value [1] is on record?
A: 1.77

Q: And the “threo-Sphingosine, ratio versus control” value [1]?
A: 1.2

Q: What about the “DAG (C18:1,C18:2), ratio versus control” value [2] of the same compound?
A: 0.65*

Q: And the “Serotonin (5-HT), ratio versus control” value [2]?
A: 0.33*

Q: And the “4-Hydroxysphinganine (t18:0, Phytosphingosine), total, ratio versus control” value (“4-Hydroxysphinganine … ratio versus control” below) [3]?
A: 1.51*

Q: What about the “Ceramide (d18:1,C24:1), ratio versus control” value [3] of the same compound?
A: 1.91*

Q: And the “DAG (C18:1,C18:2), ratio versus control” value [4]?
A: 0.64*

Q: What about the “Serotonin (5-HT), ratio versus control” value [4] of the same compound?
A: 0.07*

Q: What about the “4-Hydroxysphinganine … ratio versus control” value [5] of the same compound?
A: 2.57*

Q: What about the “Ceramide (d18:1,C24:1), ratio versus control” value [5] of the same compound?
A: 1.85*

Q: And the “threo-Sphingosine, ratio versus control” value [5]?
A: 2.2*

Q: What about the “DAG (C18:1,C18:2), ratio versus control” value [6] of the same compound?
A: 0.63*

Q: What about the “Serotonin (5-HT), ratio versus control” value [6] of the same compound?
A: 0.28*

Q: And the “4-Hydroxysphinganine … ratio versus control” value (rat, in vivo)?
A: 1.34*

Q: And the “threo-Sphingosine, ratio versus control” value (rat, in vivo)?
A: 1.45*

Q: For `O=C1CCCC(=O)C1C(=O)c1ccc(C(F)(F)F)cc1[N+](=O)[O-]` [NTBC (HPPD-Inhibitor), NTBC], which “4-Hydroxyphenylpyruvate, ratio versus control” value [7] is on record?
A: 245.75*

Q: What about the “Glycine, ratio versus control” value [7] of the same compound?
A: 1.2*

Q: And the “Phosphatidylcholine (C18:0,C18:2), ratio versus control” value [7]?
A: 1.03*

Q: And the “Serine, ratio versus control” value [7]?
A: 1.38*

Q: What about the “TAG (C16:0,C18:2), ratio versus control” value [7] of the same compound?
A: 1.62*

Q: And the “TAG (C18:1,C18:2), ratio versus control” value [7]?
A: 2.45*

Q: What about the “TAG (C18:2,C18:2), ratio versus control” value [7] of the same compound?
A: 1.91*

Q: And the “Threonine, ratio versus control” value [7]?
A: 1.43*

Q: And the “Tyrosine, ratio versus control” value [7]?
A: 37.75*

Q: And the “gamma-Linolenic acid (C18:cis[6,9,12]3), ratio versus control” value [7]?
A: 1.34

Q: What about the “5-Oxoproline, ratio versus control” value [8] of the same compound?
A: 0.5*

Q: What about the “Glutamine, ratio versus control” value [8] of the same compound?
A: 0.54*

Q: What about the “4-Hydroxyphenylpyruvate, ratio versus control” value [9] of the same compound?
A: 293.51*

Q: What about the “Glycine, ratio versus control” value [9] of the same compound?
A: 1.33*

Q: What about the “Phosphatidylcholine (C18:0,C18:2), ratio versus control” value [9] of the same compound?
A: 1

Q: What about the “Serine, ratio versus control” value [9] of the same compound?
A: 1.48*

Q: What about the “TAG (C16:0,C18:2), ratio versus control” value [9] of the same compound?
A: 1.37*

Q: And the “TAG (C18:1,C18:2), ratio versus control” value [9]?
A: 2.22*

Q: And the “TAG (C18:2,C18:2), ratio versus control” value [9]?
A: 1.92*

Q: And the “Threonine, ratio versus control” value [9]?
A: 1.82*

Q: What about the “Tyrosine, ratio versus control” value [9] of the same compound?
A: 50.64*

Q: What about the “gamma-Linolenic acid (C18:cis[6,9,12]3), ratio versus control” value [9] of the same compound?
A: 1.61*

Q: And the “5-Oxoproline, ratio versus control” value [10]?
A: 0.55*

Q: And the “Glutamine, ratio versus control” value [10]?
A: 0.46*

Q: And the “4-Hydroxyphenylpyruvate, ratio versus control” value [11]?
A: 276.92*

Q: And the “Glycine, ratio versus control” value [11]?
A: 1.48*

Q: And the “Phosphatidylcholine (C18:0,C18:2), ratio versus control” value [11]?
A: 1.05*

Q: What about the “Serine, ratio versus control” value [11] of the same compound?
A: 1.43*

Q: What about the “TAG (C16:0,C18:2), ratio versus control” value [11] of the same compound?
A: 1.44*

Q: What about the “TAG (C18:1,C18:2), ratio versus control” value [11] of the same compound?
A: 1.51*

Q: And the “TAG (C18:2,C18:2), ratio versus control” value [11]?
A: 1.31*

Q: And the “Threonine, ratio versus control” value [11]?
A: 1.52*

Q: What about the “Tyrosine, ratio versus control” value [11] of the same compound?
A: 38.31*

Q: And the “gamma-Linolenic acid (C18:cis[6,9,12]3), ratio versus control” value [11]?
A: 1.55*

Q: And the “5-Oxoproline, ratio versus control” value [12]?
A: 0.69*

Q: And the “Glutamine, ratio versus control” value [12]?
A: 0.48*

Q: What about the “4-Hydroxyphenylpyruvate, ratio versus control” value [13] of the same compound?
A: 364.14*

Q: What about the “Lysine, ratio versus control” value [13] of the same compound?
A: 1.12

Q: What about the “Threonine, ratio versus control” value [13] of the same compound?
A: 1.36*

Q: What about the “Tyrosine, ratio versus control” value [13] of the same compound?
A: 56.14*

Q: And the “5-Oxoproline, ratio versus control” value [14]?
A: 0.6*

Q: And the “Citrulline, ratio versus control” value [14]?
A: 0.84*

Q: What about the “Glutamine, ratio versus control” value [14] of the same compound?
A: 0.55*

Q: What about the “Phenylalanine, ratio versus control” value [14] of the same compound?
A: 0.78*

Q: And the “4-Hydroxyphenylpyruvate, ratio versus control” value [15]?
A: 435.77*

Q: And the “Lysine, ratio versus control” value [15]?
A: 1.4*

Q: What about the “Threonine, ratio versus control” value [15] of the same compound?
A: 1.51*

Q: And the “Tyrosine, ratio versus control” value [15]?
A: 58.08*

Q: What about the “5-Oxoproline, ratio versus control” value [16] of the same compound?
A: 0.61*

Q: What about the “Citrulline, ratio versus control” value [16] of the same compound?
A: 0.88*

Q: And the “Glutamine, ratio versus control” value [16]?
A: 0.57*

Q: And the “Phenylalanine, ratio versus control” value [16]?
A: 0.77*

Q: And the “4-Hydroxyphenylpyruvate, ratio versus control” value [17]?
A: 366.39*

Q: And the “Lysine, ratio versus control” value [17]?
A: 1.46*

Q: And the “Threonine, ratio versus control” value [17]?
A: 1.54*

Q: And the “Tyrosine, ratio versus control” value [17]?
A: 52.56*

Q: And the “5-Oxoproline, ratio versus control” value [18]?
A: 0.6*

Q: And the “Citrulline, ratio versus control” value [18]?
A: 0.83*

Q: And the “Glutamine, ratio versus control” value [18]?
A: 0.58*

Q: What about the “Phenylalanine, ratio versus control” value [18] of the same compound?
A: 1.02

Q: With `Fc1ccc([C@@H]2CCNC[C@H]2COc2ccc3c(c2)OCO3)cc1` [Paroxetine hydrochloride] as the compound, how does the “alpha-Tocopherol, ratio versus control” value (plasma, female rats, day 7, high dose, Table 7a) read?
A: 1.08

Q: What about the “Adrenaline (Epi-nephrine), ratio versus control” value [19] of the same compound?
A: 0.19*

Q: What about the “Glutamate, ratio versus control” value [19] of the same compound?
A: 0.7*

Q: And the “Serotonin (5-HT), ratio versus control” value [19]?
A: 0.09*

Q: And the “4-Hydroxysphinganine … ratio versus control” value [20]?
A: 1.9*

Q: What about the “Threonine, ratio versus control” value [20] of the same compound?
A: 1.65*

Q: And the “alpha-Tocopherol, ratio versus control” value [20]?
A: 1.31*

Q: And the “Adrenaline (Epi-nephrine), ratio versus control” value [21]?
A: 0.36*

Q: What about the “Glutamate, ratio versus control” value [21] of the same compound?
A: 0.68*

Q: What about the “Serotonin (5-HT), ratio versus control” value [21] of the same compound?
A: 0.07*

Q: What about the “4-Hydroxysphinganine … ratio versus control” value [22] of the same compound?
A: 2.11*

Q: And the “Threonine, ratio versus control” value [22]?
A: 1.4*

Q: And the “Adrenaline (Epi-nephrine), ratio versus control” value [23]?
A: 0.89

Q: And the “Glutamate, ratio versus control” value [23]?
A: 0.85

Q: What about the “Serotonin (5-HT), ratio versus control” value [23] of the same compound?
A: 0.04*

Q: And the “4-Hydroxysphinganine … ratio versus control” value (rat, in vivo)?
A: 1.99*

Q: What about the “Threonine, ratio versus control” value (rat, in vivo) of the same compound?
A: 1.41*

Q: And the “alpha-Tocopherol, ratio versus control” value (rat, in vivo)?
A: 1.32*

Q: With `CCCC(C)C1(CC)C(=O)NC(=O)NC1=O` (stereo not drawn) [Pentobarbital sodium i.p., Pentobarbital sodium] as the compound, how does the “3-Indoxylsulfate, ratio versus control” value (rat, in vivo) read?
A: 1.44 *

Q: And the “Cysteine, ratio versus control” value (rat, in vivo)?
A: 0.64 *

Q: What about the “Ketoleucine, ratio versus control” value (rat, in vivo) of the same compound?
A: 1.09

Q: And the “Malate, ratio versus control” value (rat, in vivo)?
A: 0.83 *

Q: And the “Pantothenic acid, ratio versus control” value (rat, in vivo)?
A: 1.14^

Q: What about the “Phosphate (inorganic and organic phosphates), ratio versus control” value (rat, in vivo) of the same compound?
A: 1.21 *

Q: What about the “Phosphatidylcholine (C16:0, C20:4), ratio versus control” value (rat, in vivo) of the same compound?
A: 1 *

Q: And the “Phosphatidylcholine (C16:0, C22_6), ratio versus control” value (rat, in vivo)?
A: 0.94 *

Q: What about the “alpha-Tocopherol, ratio versus control” value (rat, in vivo) of the same compound?
A: 1.23 *
